In patent US20080124270A1, “Compounds Useful as Metal Chelators” (BRACCO IMAGING S.P.A., priority 2003, published 2008):

Experiments:
[1] = relaxivity r1 of the gadolinium complex; type: physicochemical; conditions: for r1: relaxivity of the compound when complexed with gadolinium
Text: (§1) One measure of a complex of a paramagnetic metal and a chelation compound is its signal enhancing effect when used as a contrast agent for MRI. The effectiveness of a paramagnetic complex (e.g., a complex including Gd (III)) in decreasing the relaxation time (T1) of the vicinal water protons is an intrinsic property called relaxivity, r1, which is given by the following equation: […]

[2] = relaxivity r1 of the gadolinium complex in Sucrose 80; type: physicochemical; conditions: relaxivity of the compound when complexed with gadolinium
Text: as §1

Row | r1 [1] [mM⁻¹ s⁻¹] | r1 in Sucrose 80 [2] [mM⁻¹ s⁻¹] | relaxivity compared to DOTA or DO3A ([1]; when it complexes gadolinium, result in words) | Structure (SMILES)
1 | 3.5 | 35 | – | O=C(O)CN1CCN(CC(=O)O)CCN(CC(=O)O)CCN(CC(=O)O)CC1 [DOTA, 1,4,7,10-tetraazacyclododecane-1,4,7,10-tetraacetic acid, reference compound]
2 | 4.1 | 64 | – | CC(N1CCN(CC(=O)O)CCN(CC(=O)O)CCN(CC(=O)O)CC1)P(=O)(O)O (stereo not shown) [EPDO3A (Na), 10-(1-phosphonoethyl)-1,4,7,10-tetrazacycododecane-1,4,7-triacetic acid]
3 | 4.1 | 65 | surprisingly high relaxivity | O=C(O)CN1CCN(CC(=O)O)CCN(CP(=O)(O)O)CCN(CC(=O)O)CC1 [MPDO3A (Na), 10-Phosphonomethyl-1,4,7,10-tetraazacyclododecane-1,4,7-triacetic acid]
